System: postmenopausal women
Assay: Clinical data, summary in words: BMD and bone turnover markers after alendronate followed by raloxifene
Type: in vivo, human
Details: alendronate for one year followed sequentially by raloxifene alone
Method: A phase 3, multicenter, double-blind, placebo-controlled, randomized clinical trial was conducted. Objectives of the trial included comparing the effects of 12 months treatment with raloxifene HCl (60 mg/day), alendronate (10 mg/day), or the combination of the two agents together versus placebo on BMD at the lumbar spine and at the hip and also metabolic markers of bone turnover. Additional objectives included comparing the effects of raloxifene 60 mg/day versus placebo during a second year of study on the offset of action of raloxifene or alendronate, as assessed by these same efficacy parameters.
Three hundred thirty-one (331) subjects were randomly assigned to one of four initial treatment groups: placebo, raloxifene 60 mg/day, alendronate 10 mg/day or raloxifene plus alendronate together. After one year of therapy all subjects were re-randomized to receive either placebo or raloxifene 60 mg/day for an additional year of study. All subjects received approximately 500 mg of elemental calcium plus 400-600 I.U. of vitamin D/day throughout the entire study. […] In addition subjects had BMD and biochemical markers of bone turnover (including serum osteocalcin) repeated at six monthly intervals.

With O=C(c1ccc(OCCN2CCCCC2)cc1)c1c(-c2ccc(O)cc2)sc2cc(O)ccc12 [raloxifene, 6-hydroxy-2-(4-hydroxyphenyl)-3-[4-(2-piperidinoethoxy)benzoyl]-benzo[b]thiophene] the bone turnover markers was “either return towards normal or remain suppressed but do not further decrease” and the BMD (compared to alendronate followed by placebo) was “further increases of BMD”.

From patent publication US20030216358A1, “Method for enhancing bone mineral density gain” (priority 2003, published 2003)
